In ChEMBL document CHEMBL3352660, “Design, synthesis and pharmacological evaluation of novel polycyclic heteroarene ethers as PDE10A inhibitors: part II” (Bioorg Med Chem Lett, 2014):
pIC50: −log10 of the molar value.

What was measured:
[1] = target: T1, cAMP and cAMP-inhibited cGMP 3',5'-cyclic phosphodiesterase 10A (Homo sapiens, UniProt Q9Y233); assay: Inhibition of human recombinant GST-tagged PDE10A using [3H]-cAMP as substrate at 1 uM after 30 mins by scintillation proximity assay
[2] = target: T1, cAMP and cAMP-inhibited cGMP 3',5'-cyclic phosphodiesterase 10A; assay: Inhibition of human recombinant GST-tagged PDE10A using [3H]-cAMP as substrate after 30 mins by scintillation proximity assay
[3] = target: T2, cAMP and cAMP-inhibited cGMP 3',5'-cyclic phosphodiesterase 10A (Rattus norvegicus, UniProt Q9QYJ6); assay: Inhibition of rat recombinant GST-tagged PDE10A using [3H]-cAMP as substrate by scintillation proximity assay
T2 sequence (Q9QYJ6 whole entry): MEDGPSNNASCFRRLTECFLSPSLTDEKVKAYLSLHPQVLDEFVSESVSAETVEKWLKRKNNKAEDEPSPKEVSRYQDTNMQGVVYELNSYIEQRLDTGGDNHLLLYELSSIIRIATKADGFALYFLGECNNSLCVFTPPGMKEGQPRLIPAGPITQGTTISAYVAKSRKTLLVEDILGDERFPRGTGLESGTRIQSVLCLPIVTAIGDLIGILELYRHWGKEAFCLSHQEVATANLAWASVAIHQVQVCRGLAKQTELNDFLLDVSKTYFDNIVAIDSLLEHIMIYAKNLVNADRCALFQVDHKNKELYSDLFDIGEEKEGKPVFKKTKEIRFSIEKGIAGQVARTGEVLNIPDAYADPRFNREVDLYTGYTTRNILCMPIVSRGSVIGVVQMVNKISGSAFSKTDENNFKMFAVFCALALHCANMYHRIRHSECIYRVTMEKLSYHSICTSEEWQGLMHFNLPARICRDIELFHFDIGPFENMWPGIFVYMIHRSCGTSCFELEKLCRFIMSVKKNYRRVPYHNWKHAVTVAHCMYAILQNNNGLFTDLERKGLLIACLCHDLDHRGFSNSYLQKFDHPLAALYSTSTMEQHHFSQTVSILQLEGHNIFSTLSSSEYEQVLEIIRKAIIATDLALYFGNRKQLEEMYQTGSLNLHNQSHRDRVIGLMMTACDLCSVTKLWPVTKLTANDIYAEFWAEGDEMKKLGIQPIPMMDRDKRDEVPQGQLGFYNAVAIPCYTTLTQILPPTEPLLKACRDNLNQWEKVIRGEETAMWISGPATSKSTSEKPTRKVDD

[4] = target: cGMP-dependent 3',5'-cyclic phosphodiesterase (Homo sapiens) (UniProt O00408); assay: Inhibition of human recombinant PDE2A using cAMP as substrate at 1 uM after 30 mins by HTRF method
[5] = target: cGMP-dependent 3',5'-cyclic phosphodiesterase (Homo sapiens) (UniProt O00408); assay: Inhibition of human recombinant PDE2A using cAMP as substrate at 10 uM after 30 mins by HTRF method
[6] = target: cGMP-inhibited 3',5'-cyclic phosphodiesterase 3A (Homo sapiens) (UniProt Q14432); assay: Inhibition of human recombinant PDE3A using cAMP as substrate at 1 uM after 30 mins by HTRF method
[7] = target: cGMP-inhibited 3',5'-cyclic phosphodiesterase 3A (Homo sapiens) (UniProt Q14432); assay: Inhibition of human recombinant PDE3A using cAMP as substrate at 10 uM after 30 mins by HTRF method
[8] = target: 3',5'-cyclic-AMP phosphodiesterase 4D (Homo sapiens) (UniProt Q08499); assay: Inhibition of human recombinant PDE4D using [3H]-cAMP as substrate at 1 uM after 30 mins by two-step radiometric assay
[9] = target: 3',5'-cyclic-AMP phosphodiesterase 4D (Homo sapiens) (UniProt Q08499); assay: Inhibition of human recombinant PDE4D using [3H]-cAMP as substrate at 10 uM after 30 mins by two-step radiometric assay
[10] = target: cGMP-specific 3',5'-cyclic phosphodiesterase (Homo sapiens) (UniProt O76074); assay: Inhibition of human recombinant PDE5A using […] as substrate at 1 uM after 30 mins by scintillation proximity assay
[11] = target: cGMP-specific 3',5'-cyclic phosphodiesterase (Homo sapiens) (UniProt O76074); assay: Inhibition of human recombinant PDE5A using […] as substrate at 10 uM after 30 mins by scintillation proximity assay
[12] = target: High affinity 3',5'-cyclic-AMP phosphodiesterase 7A (Homo sapiens) (UniProt Q13946); assay: Inhibition of human recombinant PDE7A using [3H]-cAMP as substrate at 1 uM after 30 mins by two-step radiometric assay
[13] = target: High affinity 3',5'-cyclic-AMP phosphodiesterase 7A (Homo sapiens) (UniProt Q13946); assay: Inhibition of human recombinant PDE7A using [3H]-cAMP as substrate at 10 uM after 30 mins by two-step radiometric assay
[14] = target: Dual 3',5'-cyclic-AMP and -GMP phosphodiesterase 11A (Homo sapiens) (UniProt Q9HCR9); assay: Inhibition of human recombinant PDE11A using [3H]-cAMP as substrate at 1 uM after 30 mins by two-step radiometric assay
[15] = target: Dual 3',5'-cyclic-AMP and -GMP phosphodiesterase 11A (Homo sapiens) (UniProt Q9HCR9); assay: Inhibition of human recombinant PDE11A using [3H]-cAMP as substrate at 10 uM after 30 mins by two-step radiometric assay
[16] = Metabolic stability in Wistar rat liver microsomes incubated for 10 mins prior to NADPH addition measured after 60 mins by LC/MS/MS analysis; type: ADME; settings: read-out: Stability
[17] = Metabolic stability in CD1 mouse liver microsomes incubated for 10 mins prior to NADPH addition measured after 60 mins by LC/MS/MS analysis; type: ADME; settings: read-out: Stability
[18] = Metabolic stability in Beagle dog liver microsomes incubated for 10 mins prior to NADPH addition measured after 60 mins by LC/MS/MS analysis; type: ADME, Canis lupus familiaris; settings: read-out: Stability
[19] = Metabolic stability in cynomolgus monkey liver microsomes incubated for 10 mins prior to NADPH addition measured after 60 mins by LC/MS/MS analysis; type: ADME, Macaca fascicularis; settings: read-out: Stability
[20] = Metabolic stability in human liver microsomes incubated for 10 mins prior to NADPH addition measured after 60 mins by LC/MS/MS analysis; type: ADME; settings: read-out: Stability
[21] = target: T3, cAMP and cAMP-inhibited cGMP 3',5'-cyclic phosphodiesterase 10A (Mus musculus, UniProt Q8CA95); assay: Inhibition of mouse recombinant GST-tagged PDE10A using [3H]-cAMP as substrate after 30 mins by scintillation proximity assay
T3 sequence (Q8CA95 whole entry): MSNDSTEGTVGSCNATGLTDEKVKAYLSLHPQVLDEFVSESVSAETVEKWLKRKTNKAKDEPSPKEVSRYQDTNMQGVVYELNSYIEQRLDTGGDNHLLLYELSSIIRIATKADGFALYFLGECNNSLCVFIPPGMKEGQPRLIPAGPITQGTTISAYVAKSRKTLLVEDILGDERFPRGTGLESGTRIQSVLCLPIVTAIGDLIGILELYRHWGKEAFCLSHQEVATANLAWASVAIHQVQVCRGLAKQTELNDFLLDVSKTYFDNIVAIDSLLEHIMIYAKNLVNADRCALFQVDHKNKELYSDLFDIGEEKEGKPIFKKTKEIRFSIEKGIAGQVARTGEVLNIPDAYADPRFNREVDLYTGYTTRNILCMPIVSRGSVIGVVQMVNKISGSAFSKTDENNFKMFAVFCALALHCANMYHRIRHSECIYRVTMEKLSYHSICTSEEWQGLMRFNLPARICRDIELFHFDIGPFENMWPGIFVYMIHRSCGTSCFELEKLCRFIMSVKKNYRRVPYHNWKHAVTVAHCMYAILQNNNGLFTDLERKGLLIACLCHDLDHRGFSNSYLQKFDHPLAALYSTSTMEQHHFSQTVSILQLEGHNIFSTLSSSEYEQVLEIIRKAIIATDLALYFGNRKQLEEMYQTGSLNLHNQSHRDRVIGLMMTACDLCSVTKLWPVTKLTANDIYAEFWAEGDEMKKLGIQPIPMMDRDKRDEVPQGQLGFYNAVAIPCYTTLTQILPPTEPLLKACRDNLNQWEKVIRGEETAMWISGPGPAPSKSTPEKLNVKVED

3',5'-cyclic-AMP phosphodiesterase 4D (Homo sapiens), sequence (Q08499 whole entry): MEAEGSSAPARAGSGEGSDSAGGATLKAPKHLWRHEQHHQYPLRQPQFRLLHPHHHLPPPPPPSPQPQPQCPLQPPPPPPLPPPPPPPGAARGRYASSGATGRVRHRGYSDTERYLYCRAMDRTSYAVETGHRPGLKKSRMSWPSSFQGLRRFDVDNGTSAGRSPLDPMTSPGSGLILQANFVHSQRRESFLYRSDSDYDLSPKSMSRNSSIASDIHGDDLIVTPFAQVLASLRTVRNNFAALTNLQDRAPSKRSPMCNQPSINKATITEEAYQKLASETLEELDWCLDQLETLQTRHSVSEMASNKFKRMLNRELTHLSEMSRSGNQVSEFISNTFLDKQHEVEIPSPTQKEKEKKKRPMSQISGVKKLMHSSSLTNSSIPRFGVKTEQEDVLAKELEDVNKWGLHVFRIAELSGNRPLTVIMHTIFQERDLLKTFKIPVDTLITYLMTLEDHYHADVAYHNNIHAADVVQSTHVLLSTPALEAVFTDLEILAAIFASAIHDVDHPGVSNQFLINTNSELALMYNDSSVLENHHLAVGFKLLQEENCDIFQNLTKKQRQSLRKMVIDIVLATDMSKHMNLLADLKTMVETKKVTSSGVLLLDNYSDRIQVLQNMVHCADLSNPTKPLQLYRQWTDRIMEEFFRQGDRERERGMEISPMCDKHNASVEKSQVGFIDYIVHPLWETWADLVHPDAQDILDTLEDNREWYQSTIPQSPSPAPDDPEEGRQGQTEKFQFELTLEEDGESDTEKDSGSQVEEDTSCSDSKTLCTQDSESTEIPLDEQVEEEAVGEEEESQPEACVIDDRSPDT
T1 sequence (Q9Y233 whole entry): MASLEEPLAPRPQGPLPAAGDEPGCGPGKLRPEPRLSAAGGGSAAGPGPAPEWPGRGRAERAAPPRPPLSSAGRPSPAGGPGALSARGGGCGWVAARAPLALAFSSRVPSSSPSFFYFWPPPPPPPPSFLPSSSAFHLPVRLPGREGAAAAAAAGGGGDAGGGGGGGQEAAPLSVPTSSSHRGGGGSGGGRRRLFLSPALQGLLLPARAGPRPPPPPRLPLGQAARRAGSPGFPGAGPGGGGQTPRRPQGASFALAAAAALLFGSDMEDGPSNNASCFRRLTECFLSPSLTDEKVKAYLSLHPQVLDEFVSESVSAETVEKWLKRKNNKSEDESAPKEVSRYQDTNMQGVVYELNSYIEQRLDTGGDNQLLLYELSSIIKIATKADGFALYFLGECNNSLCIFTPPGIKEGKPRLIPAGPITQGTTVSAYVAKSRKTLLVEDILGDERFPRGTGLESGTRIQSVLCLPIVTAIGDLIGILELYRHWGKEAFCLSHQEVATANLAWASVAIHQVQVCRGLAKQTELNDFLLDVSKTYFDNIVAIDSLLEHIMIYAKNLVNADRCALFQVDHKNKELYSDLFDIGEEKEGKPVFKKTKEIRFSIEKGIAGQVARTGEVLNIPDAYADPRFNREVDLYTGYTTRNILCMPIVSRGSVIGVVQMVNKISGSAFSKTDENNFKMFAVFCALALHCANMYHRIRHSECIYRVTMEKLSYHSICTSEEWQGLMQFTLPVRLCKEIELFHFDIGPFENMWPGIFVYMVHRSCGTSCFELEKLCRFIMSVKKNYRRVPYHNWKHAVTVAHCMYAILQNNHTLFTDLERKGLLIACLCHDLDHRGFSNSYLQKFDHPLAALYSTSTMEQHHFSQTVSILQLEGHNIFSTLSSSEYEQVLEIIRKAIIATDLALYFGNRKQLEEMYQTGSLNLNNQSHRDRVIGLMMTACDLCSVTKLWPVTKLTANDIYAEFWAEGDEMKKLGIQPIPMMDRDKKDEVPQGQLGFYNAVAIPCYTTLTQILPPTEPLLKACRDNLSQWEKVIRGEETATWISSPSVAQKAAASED
High affinity 3',5'-cyclic-AMP phosphodiesterase 7A (Homo sapiens), sequence (Q13946 whole entry): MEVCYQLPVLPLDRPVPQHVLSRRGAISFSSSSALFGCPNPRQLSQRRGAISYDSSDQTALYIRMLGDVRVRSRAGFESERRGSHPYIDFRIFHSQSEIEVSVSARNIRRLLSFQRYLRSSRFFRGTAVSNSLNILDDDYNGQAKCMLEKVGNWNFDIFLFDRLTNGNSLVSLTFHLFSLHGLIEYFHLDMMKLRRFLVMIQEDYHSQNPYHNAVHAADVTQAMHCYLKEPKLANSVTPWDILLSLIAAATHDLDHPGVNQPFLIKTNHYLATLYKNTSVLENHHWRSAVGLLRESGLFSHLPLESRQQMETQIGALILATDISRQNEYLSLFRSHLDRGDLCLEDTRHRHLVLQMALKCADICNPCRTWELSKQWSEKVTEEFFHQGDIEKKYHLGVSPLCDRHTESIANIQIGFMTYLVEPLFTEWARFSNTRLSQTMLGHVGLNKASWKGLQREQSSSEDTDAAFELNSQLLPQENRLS
Dual 3',5'-cyclic-AMP and -GMP phosphodiesterase 11A (Homo sapiens), sequence (Q9HCR9 whole entry, looked up): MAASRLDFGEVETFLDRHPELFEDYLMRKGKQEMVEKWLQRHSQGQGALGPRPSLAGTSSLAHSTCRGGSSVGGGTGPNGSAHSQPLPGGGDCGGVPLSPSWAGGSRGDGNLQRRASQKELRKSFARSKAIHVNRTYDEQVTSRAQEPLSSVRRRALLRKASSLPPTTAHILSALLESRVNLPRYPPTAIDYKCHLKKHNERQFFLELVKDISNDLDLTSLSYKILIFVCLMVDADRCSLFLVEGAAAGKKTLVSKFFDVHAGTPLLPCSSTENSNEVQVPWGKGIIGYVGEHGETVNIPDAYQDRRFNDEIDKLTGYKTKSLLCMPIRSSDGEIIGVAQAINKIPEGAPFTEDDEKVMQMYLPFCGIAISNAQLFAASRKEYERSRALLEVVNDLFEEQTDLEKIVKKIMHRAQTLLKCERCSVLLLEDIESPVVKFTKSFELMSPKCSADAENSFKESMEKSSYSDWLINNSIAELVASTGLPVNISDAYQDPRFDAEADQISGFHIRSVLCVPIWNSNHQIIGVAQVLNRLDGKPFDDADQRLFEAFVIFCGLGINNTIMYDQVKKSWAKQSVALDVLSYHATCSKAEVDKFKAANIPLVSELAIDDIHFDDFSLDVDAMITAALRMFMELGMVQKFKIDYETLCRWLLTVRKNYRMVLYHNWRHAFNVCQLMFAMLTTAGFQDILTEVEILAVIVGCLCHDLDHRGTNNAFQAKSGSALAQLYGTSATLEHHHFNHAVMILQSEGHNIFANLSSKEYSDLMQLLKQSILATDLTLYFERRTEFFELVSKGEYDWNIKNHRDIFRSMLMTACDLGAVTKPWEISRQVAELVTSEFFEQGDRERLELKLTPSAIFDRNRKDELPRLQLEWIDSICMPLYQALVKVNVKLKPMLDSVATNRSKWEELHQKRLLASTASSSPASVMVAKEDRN
cGMP-dependent 3',5'-cyclic phosphodiesterase (Homo sapiens), sequence (O00408 whole entry): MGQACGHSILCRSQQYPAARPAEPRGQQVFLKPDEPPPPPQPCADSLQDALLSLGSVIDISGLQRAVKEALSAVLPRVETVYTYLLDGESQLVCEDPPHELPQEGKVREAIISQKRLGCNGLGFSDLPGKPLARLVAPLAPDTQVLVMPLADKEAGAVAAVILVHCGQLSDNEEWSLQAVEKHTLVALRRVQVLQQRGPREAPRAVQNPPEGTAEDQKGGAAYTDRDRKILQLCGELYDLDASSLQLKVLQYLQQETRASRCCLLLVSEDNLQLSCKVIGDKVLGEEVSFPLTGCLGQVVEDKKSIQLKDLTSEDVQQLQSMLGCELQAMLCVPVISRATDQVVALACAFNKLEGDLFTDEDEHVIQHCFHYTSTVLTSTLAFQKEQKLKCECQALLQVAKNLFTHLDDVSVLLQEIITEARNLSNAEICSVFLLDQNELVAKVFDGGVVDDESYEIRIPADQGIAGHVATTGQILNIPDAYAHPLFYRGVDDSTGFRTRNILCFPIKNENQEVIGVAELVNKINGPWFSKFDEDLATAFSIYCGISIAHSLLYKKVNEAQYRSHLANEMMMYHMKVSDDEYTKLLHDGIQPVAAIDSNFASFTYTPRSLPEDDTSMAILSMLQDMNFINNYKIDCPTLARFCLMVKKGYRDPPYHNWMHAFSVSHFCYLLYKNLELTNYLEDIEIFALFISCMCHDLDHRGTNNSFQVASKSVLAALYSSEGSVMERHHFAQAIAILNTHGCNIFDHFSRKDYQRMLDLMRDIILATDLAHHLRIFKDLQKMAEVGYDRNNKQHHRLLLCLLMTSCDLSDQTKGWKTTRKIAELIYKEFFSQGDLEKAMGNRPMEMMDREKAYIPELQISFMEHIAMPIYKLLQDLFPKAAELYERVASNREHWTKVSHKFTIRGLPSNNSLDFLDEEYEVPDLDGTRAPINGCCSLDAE

Row | SMILES | inhibition [1] | pIC50 [2] | pIC50 [3] | inhibition [4] | inhibition [5] | inhibition [6] | inhibition [7] | inhibition [8] | inhibition [9] | inhibition [10] | inhibition [11] | inhibition [12] | inhibition [13] | inhibition [14] | inhibition [15] | remaining at 1 h [16] | remaining at 1 h [17] | remaining at 1 h [18] | remaining at 1 h [19] | remaining at 1 h [20] | other results
1 | Cn1cc(-c2ccc(Oc3nccnc3-c3ccncc3)cc2)c2ncc(Cl)cc21 | 79.7% | 7.15 | 6.85 | 11.3% | 16.1% | 0.7% | 9.8% | 4.1% | 25.4% | 0.1% | 19.3% | 5.9% | 53.1% | 3.1% | 5.7% | 68% | 70.5% | 55.3% | 40.7% | 77% | –
2 | Cn1cc(-c2cccc(Oc3nccnc3-c3cncnc3)c2)c2nc3ccccc3cc21 | 76.3% | 6.57 | 5.84 | – | – | – | – | – | – | – | – | – | – | – | – | – | – | – | – | – | –
3 | COc1ccc(-c2ccnc(Oc3cccc(-c4cn(C)c5cc6ccccc6nc45)c3)n2)cc1 | 72.4% | 6.99 | – | – | – | – | – | – | – | – | – | – | – | – | – | – | – | – | – | – | –
4 | COc1ccc(-c2nccnc2Oc2ccc(-c3cn(C)c4cc5ccccc5nc34)cc2)cc1 | 72.3% | 6.82 | 6.88 | – | – | – | – | – | – | – | – | – | – | – | – | – | – | – | – | – | –
5 | Cn1cc(-c2ccc(Oc3nccnc3-c3ccc(F)cc3)cc2)c2nc3ccccc3cc21 | 76.9% | 6.75 | – | – | – | – | – | – | – | – | – | – | – | – | – | – | – | – | – | – | –
6 | Cn1cc(-c2ccc(Oc3nccc(-c4cncnc4)n3)cc2)c2nc3ccccc3cc21 | 85.3% | 6.89 | – | – | – | – | – | – | – | – | – | – | – | – | – | – | – | – | – | – | –
7 | Cn1cc(-c2ccc(Oc3ncccc3-c3ccncc3)cc2)c2ncc(Cl)cc21 | 95.4% | 8.59 | 8.15 | 12.3% | 12.6% | 0% | 0% | 3.5% | 6.9% | 2.4% | 3.1% | 10.5% | 17.5% | 8.5% | 3% | 64% | 67.1% | 54.7% | 54.5% | 80.9% | pIC50 [21]: 8.17
8 | Cn1cc(-c2cccc(Oc3nccc(-c4ccc(F)cc4)n3)c2)c2nc3ccccc3cc21 | 76.3% | 6.94 | – | – | – | – | – | – | – | – | – | – | – | – | – | – | – | – | – | – | –
9 | Cn1cc(-c2ccc(Oc3nccnc3-c3cncnc3)cc2)c2nc3ccccc3cc21 | 94.8% | 7.72 | 7.51 | 8.9% | 14.2% | 0.3% | 9.4% | 1.3% | 19.5% | 9.4% | 17.3% | 6% | 20.2% | 3.3% | 21.8% | 83.1% | 76.1% | 77% | 68.3% | 85.2% | –
10 | Cn1cc(C2=CCC(Oc3nccnc3-c3cncnc3)CC2)c2ncccc21 (stereo unspecified) | 78% | 6.87 | 6.26 | – | – | – | – | – | – | – | – | – | – | – | – | 5.9% | 8.5% | 43.3% | 0% | 12.2% | –
11 | Cn1cc(-c2cccc(Oc3nccc(N4CCOCC4)n3)c2)c2nc3ccccc3cc21 | 93.1% | 7.53 | 6.78 | 15.7% | 76.2% | 0.3% | 21.5% | 5.6% | 1% | 16% | 33.3% | 5.8% | 19.5% | 44.6% | 76.3% | 0.4% | 0.6% | 1.3% | 0.6% | 8.2% | –
12 | Cn1cc(-c2cccc(Oc3nccc(-c4cn[nH]c4)n3)c2)c2nc3ccccc3cc21 | 89.3% | 7.68 | 6.91 | 16.1% | 40.8% | 4.5% | 27.5% | 7.9% | 34.7% | 8.2% | 19% | 16.7% | 27.2% | 27.3% | 38.5% | 17.3% | 60.4% | 52% | 38.1% | 75.4% | –
13 | Cn1cc(-c2cccc(Oc3nccc(-c4cncnc4)n3)c2)c2nc3ccccc3cc21 | 95% | 7.74 | 7.04 | 11.4% | 38.5% | 1.1% | 4.8% | 4.2% | 57% | 1.5% | 23.6% | 4.5% | 14% | 24.4% | 43.8% | 44.7% | 3.9% | 40.3% | 4.5% | 39.8% | –
14 | Cn1cc(C2CCC(Oc3nccnc3-c3cncnc3)CC2)c2ncccc21 (stereo unspecified) | 68.9% | 6.26 | 6.43 | – | – | – | – | – | – | – | – | – | – | – | – | 72.5% | 50.3% | 68.6% | 0% | 48.8% | –
